# In ChEMBL document CHEMBL2321747, “A nonionic inhibitor with high specificity for the UDP-Gal donor binding site of human blood group B galactosyltransferase: design, synthesis, and characterization” (J Med Chem, 2013):
# Active and inactive are the calls of the source. No cut-off for these calls is given here.
# Tests used:
# [1] = (§1) Competitive inhibition of human blood group A N-acetylgalactosaminyltransferase using UDP-GalNac as substrate in presence of magnesium ions
# [2] = biological target: T1, Histo-blood group ABO system transferase (Homo sapiens, UniProt P16442); assay: Inhibition of human blood group B Galactosyltransferase using radiolabeled UDP-Gal as substrate in presence of manganese ions
# T1 sequence (P16442 whole entry): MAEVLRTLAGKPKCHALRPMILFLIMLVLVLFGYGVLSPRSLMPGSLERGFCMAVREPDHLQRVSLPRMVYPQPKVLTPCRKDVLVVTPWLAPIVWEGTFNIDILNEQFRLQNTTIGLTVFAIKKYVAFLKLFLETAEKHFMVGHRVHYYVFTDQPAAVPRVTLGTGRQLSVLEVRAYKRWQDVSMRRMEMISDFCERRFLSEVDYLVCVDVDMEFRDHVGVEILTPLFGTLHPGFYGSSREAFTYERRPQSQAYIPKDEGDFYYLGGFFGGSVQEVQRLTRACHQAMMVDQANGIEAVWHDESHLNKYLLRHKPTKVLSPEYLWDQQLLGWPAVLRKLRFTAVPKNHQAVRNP
# [3] = biological target: T1, Histo-blood group ABO system transferase; assay: Inhibition of human blood group B Galactosyltransferase using UDP-Gal as substrate by STD NMR analysis in presence of magnesium ions
# [4] = biological target: T1, Histo-blood group ABO system transferase; assay: Binding affinity to human blood group B Galactosyltransferase after 300 secs by SPR analysis
# [5] = biological target: T2, Beta-1,4-galactosyltransferase 1 (Bos taurus) (UniProt P08037); assay: Binding affinity to bovine beta-1,4-galactosyltransferase 1 using UDP-Gal as substrate at 1.5 mM after 15 hrs by NMR spectroscopic analysis in presence of magnesium ions
# T2 sequence (whole entry): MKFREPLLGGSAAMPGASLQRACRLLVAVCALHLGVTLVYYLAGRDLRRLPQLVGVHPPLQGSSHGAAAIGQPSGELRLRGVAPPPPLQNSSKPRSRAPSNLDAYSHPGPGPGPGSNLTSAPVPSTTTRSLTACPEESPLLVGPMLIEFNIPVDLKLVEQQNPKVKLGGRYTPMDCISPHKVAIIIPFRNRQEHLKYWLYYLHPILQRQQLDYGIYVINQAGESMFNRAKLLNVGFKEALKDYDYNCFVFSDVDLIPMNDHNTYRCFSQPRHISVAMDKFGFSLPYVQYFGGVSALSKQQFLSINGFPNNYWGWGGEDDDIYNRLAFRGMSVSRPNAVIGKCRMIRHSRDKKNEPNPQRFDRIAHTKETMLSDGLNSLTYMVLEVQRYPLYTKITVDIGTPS
# [6] = species: Homo sapiens; assay: as §1
# [7] = biological target: T1, Histo-blood group ABO system transferase; assay: Competitive inhibition of human blood group B Galactosyltransferase using UDP-Gal as substrate by Michaelis-Menten equation analysis in presence of magnesium ions
# [8] = biological target: T1, Histo-blood group ABO system transferase; assay: Binding affinity to human blood group B Galactosyltransferase by STD NMR analysis in presence of magnesium ions
Ki [1],Ki [2],Ki [3],Kd [4],inhibition [5],inhibition [6],Ki [7],IC50 [2],IC50 [3],Kd [8],Structure (SMILES)
1100 µM,2200 µM,571 µM,2300 µM,,,,,,,O=c1[nH]c(=O)c2[nH]c(=O)n(C[C@@H](O)[C@H](O)[C@H](O)CO)c2[nH]1
,1500 µM,117 µM,254 µM,Active,inactive,565 µM,1600 µM,389 µM,182 µM,O=c1[nH]c(=O)c2[nH]c(=O)n(C[C@@H](O)[C@H](O)[C@H](O)CO[C@H]3O[C@H](CO)[C@H](O)[C@H](O)[C@H]3O)c2[nH]1
712 µM,1500 µM,361 µM,,,,,,,,O=c1[nH]c(=O)c2[nH]c(=O)n(C[C@H](O)[C@H](O)[C@H](O)CO)c2[nH]1
